For assay [1], the system named is Pfeiffer cell line (diffuse large B cell lymphoma). In words: Example B2: Pfeiffer cell proliferation assay. The assay is classed as cell-based. As to conditions: Pfeiffer cells, [3H]-thymidine incorporation. How it is done:
Pfeiffer cell line (diffuse large B cell lymphoma) are purchased from ATCC (Manassas, Va.) and maintained in the culture medium recommended (RPMI and 10% FBS). To measure the anti-proliferation activity of the compounds, the Pfeiffer cells are plated with the culture medium (2×10^3 cells/well/per 200 μl) into 96-well ultra-low binding plates (Corning, Corning, N.Y.), in the presence or absence of a concentration range of test compounds. After 3-4 days, [^3H]-thymidine (1 μCi/well) (PerkinElmer, Boston, Mass.) in PBS is then added to the cell culture for an additional 12 hours before the incorporated radioactivity is separated by filtration with water through GF/B filters (Packard Bioscience, Meridenj, Conn.) and measured by liquid scintillation counting with a TopCount (Packard Bioscience).
In general terms: Dividing cells build labelled thymidine or BrdU into new DNA.

The next assay has as its target PI3Kδ (p110δ/p85α) (Homo sapiens (Human), UniProt O00329). In words: Example A3: PI3Kδ scintillation proximity assay. To be noted: scintillation proximity assay, 20 μM ATP, 4 nM PI3Kδ; read-out: PI3Kδ SPA IC50. The assay is classed as biochemical. In short, it runs like this:
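p110δ/p85α (4 nM) phosphorylated 20 μM PIP2 with 20 μM ATP plus [γ-33P]ATP in MOPS pH 6.7, MgCl2, DTT, CHAPS, 0.5% DMSO, at RT. Stopped with EDTA/excess ATP, product captured on WGA SPA beads overnight and counted; IC50 from percent control activity versus log inhibitor.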
In general terms: SPA uses beads or plates that emit light when radiolabelled molecules are held near them.

Structures are written as SMILES.

Chain of PI3Kδ (p110δ/p85α) (O00329 whole entry): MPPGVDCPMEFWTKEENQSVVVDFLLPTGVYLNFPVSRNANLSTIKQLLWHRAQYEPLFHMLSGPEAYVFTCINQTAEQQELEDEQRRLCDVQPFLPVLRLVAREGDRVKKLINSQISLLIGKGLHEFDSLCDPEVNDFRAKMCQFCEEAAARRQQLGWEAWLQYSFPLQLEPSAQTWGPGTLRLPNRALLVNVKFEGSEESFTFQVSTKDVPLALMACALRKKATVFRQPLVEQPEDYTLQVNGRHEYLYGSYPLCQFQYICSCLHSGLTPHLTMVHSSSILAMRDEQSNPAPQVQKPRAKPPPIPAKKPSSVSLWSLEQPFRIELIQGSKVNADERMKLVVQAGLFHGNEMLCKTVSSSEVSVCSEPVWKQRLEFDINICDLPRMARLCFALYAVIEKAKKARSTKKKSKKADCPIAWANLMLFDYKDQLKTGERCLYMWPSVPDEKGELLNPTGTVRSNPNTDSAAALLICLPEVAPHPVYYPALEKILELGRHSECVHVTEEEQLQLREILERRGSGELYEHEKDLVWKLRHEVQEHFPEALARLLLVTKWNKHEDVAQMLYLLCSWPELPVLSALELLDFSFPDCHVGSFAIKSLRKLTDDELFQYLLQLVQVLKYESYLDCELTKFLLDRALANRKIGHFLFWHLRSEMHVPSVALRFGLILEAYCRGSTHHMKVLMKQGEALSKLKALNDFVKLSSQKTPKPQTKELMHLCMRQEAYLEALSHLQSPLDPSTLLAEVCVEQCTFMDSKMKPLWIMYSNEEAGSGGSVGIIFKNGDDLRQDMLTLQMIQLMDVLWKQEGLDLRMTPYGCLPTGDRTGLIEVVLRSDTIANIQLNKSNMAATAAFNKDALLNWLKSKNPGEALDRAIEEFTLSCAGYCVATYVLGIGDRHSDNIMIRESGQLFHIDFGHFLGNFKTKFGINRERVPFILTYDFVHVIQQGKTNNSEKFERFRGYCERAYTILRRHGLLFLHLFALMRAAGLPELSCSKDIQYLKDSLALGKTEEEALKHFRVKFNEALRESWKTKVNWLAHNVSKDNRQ
Chain of PI3Kδ (p110δ/p85α) (P27986 whole entry partner): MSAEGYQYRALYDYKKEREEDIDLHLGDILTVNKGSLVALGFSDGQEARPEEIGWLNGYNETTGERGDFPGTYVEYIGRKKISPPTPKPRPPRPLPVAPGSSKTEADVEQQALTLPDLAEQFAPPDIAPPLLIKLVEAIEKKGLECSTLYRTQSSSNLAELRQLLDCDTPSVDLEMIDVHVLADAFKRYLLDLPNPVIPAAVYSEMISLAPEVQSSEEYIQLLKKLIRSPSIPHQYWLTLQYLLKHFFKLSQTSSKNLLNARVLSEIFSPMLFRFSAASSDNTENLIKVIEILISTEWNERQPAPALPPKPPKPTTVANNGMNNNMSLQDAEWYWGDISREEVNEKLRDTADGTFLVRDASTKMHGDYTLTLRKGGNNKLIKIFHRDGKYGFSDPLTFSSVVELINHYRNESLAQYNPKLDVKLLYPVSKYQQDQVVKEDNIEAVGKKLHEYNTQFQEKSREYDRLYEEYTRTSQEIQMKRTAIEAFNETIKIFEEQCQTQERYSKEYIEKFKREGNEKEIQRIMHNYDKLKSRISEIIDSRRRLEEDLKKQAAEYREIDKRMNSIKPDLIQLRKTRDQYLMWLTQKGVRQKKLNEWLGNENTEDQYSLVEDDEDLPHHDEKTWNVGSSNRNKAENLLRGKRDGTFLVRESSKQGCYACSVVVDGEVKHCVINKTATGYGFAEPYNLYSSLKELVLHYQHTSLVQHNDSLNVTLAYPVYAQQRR

As to `COc1c(C(C)n2nc(C)c3c(N)ncnc32)cc(C)c(C#N)c1C1CN(C[C@H](C)O)C1` (single isomer, unassigned) [Example 315], the IC50 (commonly the midpoint of a concentration-inhibition curve) in assay [1] (Homo sapiens, Pfeiffer) was below 10 nM; on PI3Kδ (p110δ/p85α), below 10 nM.

`COc1c(C(C)n2nc(C)c3c(N)ncnc32)cc(Cl)c(C)c1C1CN([C@@H](C)CO)C1` (stereo partly shown) [Example 157]: the IC50 in assay [1] (Homo sapiens, Pfeiffer) was 10 to 50 nM; on PI3Kδ (p110δ/p85α), below 10 nM.

In the case of `COc1c(C(C)n2nc(C)c3c(N)ncnc32)cc(Cl)c(C)c1C1CN(C(C)CF)C1` (stereo not shown) [Example 114, 1-(1-{5-Chloro-3-[1-(2-fluoro-1-methylethyl)azetidin-3-yl]-2-methoxy-4-methylphenyl}ethyl)-3-methyl-1H-pyrazolo[3,4-d]pyrimidin-4-amine], the IC50 in assay [1] (Homo sapiens, Pfeiffer) is below 10 nM; on PI3Kδ (p110δ/p85α), below 10 nM.

Turning to `COc1c(C(C)n2nc(C)c3c(N)ncnc32)cc(Cl)c(C#N)c1C1CN(CCO)C1` (single isomer, unassigned) [Example 268, 4-[1-(4-Amino-3-methyl-1H-pyrazolo[3,4-d]pyrimidin-1-yl)ethyl]-6-chloro-2-[1-(2-hydroxyethyl)azetidin-3-yl]-3-methoxybenzonitrile], the IC50 in assay [1] (Homo sapiens, Pfeiffer) was below 10 nM; at PI3Kδ (p110δ/p85α) it was below 10 nM.

`COc1c(C(C)n2nc(C)c3c(N)ncnc32)cc(Cl)c(C#N)c1C1CN(C[C@H](C)O)C1` (stereo partly drawn) [Example 269, 4-[1-(4-Amino-3-methyl-1H-pyrazolo[3,4-d]pyrimidin-1-yl)ethyl]-6-chloro-2-{1-[(2S)-2-hydroxypropyl]azetidin-3-yl}-3-methoxybenzonitrile]: the IC50 in assay [1] (Homo sapiens, Pfeiffer) was below 10 nM; at PI3Kδ (p110δ/p85α), below 10 nM.

As for `COc1c(C(C)n2nc(C)c3c(N)ncnc32)cc(Cl)c(C)c1C1CCN(C)CC1` (racemic) [Example 163, 1-{1-[5-Chloro-2-methoxy-4-methyl-3-(1-methylpiperidin-4-yl)phenyl]ethyl}-3-methyl-1H-pyrazolo[3,4-d]pyrimidin-4-amine], the IC50 in assay [1] (Homo sapiens, Pfeiffer) is 10 to 50 nM; at PI3Kδ (p110δ/p85α) it was below 10 nM.

As to `CCOc1c(C(C)n2nc(C)c3c(N)ncnc32)cc(Cl)c(C)c1C1CN(C[C@H](C)O)C1` (stereo partly drawn) [Example 96, (2S)-1-(3-{3-[1-(4-Amino-3-methyl-1H-pyrazolo[3,4-d]pyrimidin-1-yl)ethyl]-5-chloro-2-ethoxy-6-methylphenyl}azetidin-1-yl)propan-2-ol bis(trifluoroacetate)], the IC50 in assay [1] (Homo sapiens, Pfeiffer) was below 10 nM; at PI3Kδ (p110δ/p85α) it was below 10 nM.

With `CCOc1c(C(C)n2nc(C)c3c(N)ncnc32)cc(Cl)c(F)c1C1CN(C(C)C)C1` (stereo not shown) [Example 139, 1-{1-[5-Chloro-2-ethoxy-4-fluoro-3-(1-isopropylazetidin-3-yl)phenyl]ethyl}-3-methyl-1H-pyrazolo[3,4-d]pyrimidin-4-amine], the IC50 in assay [1] (Homo sapiens, Pfeiffer) is below 10 nM; on PI3Kδ (p110δ/p85α) it was below 10 nM.

Compound `CCOc1c(C(C)n2nc(C)c3c(N)ncnc32)cc(Cl)c(F)c1C1CNC(=O)C1` (single isomer, unassigned) [Example 347, 4-{3-[1-(4-amino-3-methyl-1H-pyrazolo[3,4-d]pyrimidin-1-yl)ethyl]-5-chloro-2-ethoxy-6-fluorophenyl}pyrrolidin-2-one] displayed an IC50 in assay [1] below 10 nM.

In the case of `CCOc1c(C(C)n2nc(C)c3c(N)ncnc32)cc(Cl)c(C)c1-c1ccc(C(=O)N(C)C)nc1` (stereo not shown) [Example 195, 5-(3-(1-(4-Amino-3-methyl-1H-pyrazolo[3,4-d]pyrimidin-1-yl)ethyl)-5-chloro-2-ethoxy-6-methylphenyl)-N,N-dimethylpicolinamide bis(2,2,2-trifluoroacetate)], in assay [1] (Homo sapiens, Pfeiffer), the IC50 is below 10 nM.

Take `CCOc1c(C(C)n2nc(C)c3c(N)ncnc32)cc(Cl)c(F)c1C1CNC(=O)C1` (single isomer, unassigned) [Example 346, 4-{3-[1-(4-amino-3-methyl-1H-pyrazolo[3,4-d]pyrimidin-1-yl)ethyl]-5-chloro-2-ethoxy-6-fluorophenyl}pyrrolidin-2-one]: in assay [1] (Homo sapiens, Pfeiffer), the IC50 was below 10 nM.

Take `COc1c(C(C)n2nc(C)c3c(N)ncnc32)cc(Cl)c(C#N)c1C1CN(CC(C)(C)O)C1` (single isomer, unassigned) [Example 271, 4-[1-(4-Amino-3-methyl-1H-pyrazolo[3,4-d]pyrimidin-1-yl)ethyl]-6-chloro-2-[1-(2-hydroxy-2-methylpropyl)azetidin-3-yl]-3-methoxybenzonitrile]: in assay [1] (Homo sapiens, Pfeiffer), the IC50 is below 10 nM.

For the compound `CCOc1c(C(C)n2nc(C)c3c(N)ncnc32)cc(Cl)c(C)c1-c1cncc(S(C)(=O)=O)c1` (single isomer, unassigned) [Example 198], the IC50 in assay [1] (Homo sapiens, Pfeiffer) was below 10 nM.

Regarding `COc1c(C(C)n2nc(C(F)F)c3c(N)ncnc32)cc(Cl)c(C)c1-c1ccc(C(=O)N(C)C)nc1` (stereo not shown) [Example 191, 5-(3-{1-[4-Amino-3-(difluoromethyl)-1H-pyrazolo[3,4-d]pyrimidin-1-yl]ethyl}-5-chloro-2-methoxy-6-methylphenyl)-N,N-dimethylpyridine-2-carboxamide], the IC50 in assay [1] (Homo sapiens, Pfeiffer) is below 10 nM.

Turning to `COc1c(C(C)n2nc(C(F)F)c3c(N)ncnc32)cc(Cl)c(F)c1C1CN(C)C1` (racemic) [Example 75, 1-{1-[5-Chloro-4-fluoro-2-methoxy-3-(1-methylazetidin-3-yl)phenyl]ethyl}-3-(difluoromethyl)-1H-pyrazolo[3,4-d]pyrimidin-4-amine], in assay [1] (Homo sapiens, Pfeiffer), the IC50 is below 10 nM.

In assay [1] (Homo sapiens, Pfeiffer), `CCOc1c(C(C)n2nc(C)c3c(N)ncnc32)cc(Cl)c(C#N)c1C1CN(CC(C)(C)O)C1` (single isomer, unassigned) [Example 222, 4-[1-(4-Amino-3-methyl-1H-pyrazolo[3,4-d]pyrimidin-1-yl)ethyl]-6-chloro-3-ethoxy-2-[1-(2-hydroxy-2-methylpropyl)azetidin-3-yl]benzonitrile] displayed an IC50 below 10 nM.

For `COc1c(C(C)n2nc(C)c3c(N)ncnc32)cc(Cl)c(C)c1-c1ccnc(C(=O)N(C)C)c1` (stereo not shown) [Example 200, 4-(3-(1-(4-Amino-3-methyl-1H-pyrazolo[3,4-d]pyrimidin-1-yl)ethyl)-5-chloro-2-methoxy-6-methylphenyl)-N,N-dimethylpicolinamide bis(2,2,2-trifluoroacetate)], the IC50 in assay [1] (Homo sapiens, Pfeiffer) is below 10 nM.

Consider `COc1c(C(C)n2nc(C)c3c(N)ncnc32)cc(Cl)c(F)c1C1CN(C[C@H](C)O)C1` (single isomer, unassigned) [68 (1st peak)], for which the IC50 in assay [1] (Homo sapiens, Pfeiffer) was below 10 nM.

In assay [1] (Homo sapiens, Pfeiffer), `CCOc1c(C(C)n2nc(C)c3c(N)ncnc32)cc(Cl)c(F)c1C1CN(CC(N)=O)C1` (racemic) [Example 148, 2-(3-{3-[1-(4-Amino-3-methyl-1H-pyrazolo[3,4-d]pyrimidin-1-yl)ethyl]-5-chloro-2-ethoxy-6-fluorophenyl}azetidin-1-yl)acetamide] displayed an IC50 below 10 nM.

On to `COc1c(C(C)n2nc(C)c3c(N)ncnc32)cc(Cl)c(C)c1C1CN(CC(N)=O)C1` (single isomer, unassigned) [Example 111, 2-(3-{3-[1-(4-Amino-3-methyl-1H-pyrazolo[3,4-d]pyrimidin-1-yl)ethyl]-5-chloro-2-methoxy-6-methylphenyl}azetidin-1-yl)acetamide], for which, in assay [1] (Homo sapiens, Pfeiffer), the IC50 is below 10 nM.

For the compound `CCOc1c(C(C)n2nc(C)c3c(N)ncnc32)cc(Cl)c(C#N)c1C1CN(S(C)(=O)=O)C1` (single isomer, unassigned) [Example 248, 4-[1-(4-Amino-3-methyl-1H-pyrazolo[3,4-d]pyrimidin-1-yl)ethyl]-6-chloro-3-ethoxy-2-[1-(methylsulfonyl)azetidin-3-yl]benzonitrile], the IC50 in assay [1] (Homo sapiens, Pfeiffer) was below 10 nM.

With `CCOc1c(C(C)n2nc(C)c3c(N)ncnc32)cc(Cl)c(C#N)c1C1CN(C(C)C)C1` (single isomer, unassigned) [Example 215, 4-[1-(4-Amino-3-methyl-1H-pyrazolo[3,4-d]pyrimidin-1-yl)ethyl]-6-chloro-3-ethoxy-2-(1-isopropylazetidin-3-yl)benzonitrile], in assay [1] (Homo sapiens, Pfeiffer), the IC50 was below 10 nM.

`CCOc1c(C(C)n2nc(C)c3c(N)ncnc32)cc(Cl)c(F)c1C1COC(=O)N1` (single isomer, unassigned) [Example 354, 4-{3-[1-(4-amino-3-methyl-1H-pyrazolo[3,4-d]pyrimidin-1-yl)ethyl]-5-chloro-2-ethoxy-6-fluorophenyl}-1,3-oxazolidin-2-one] registered an IC50 in assay [1] (Homo sapiens, Pfeiffer) below 10 nM.

Turning to `COc1c(C(C)n2nc(C)c3c(N)ncnc32)cc(Cl)c(C#N)c1-c1ccc(C(=O)N(C)C)nc1` (stereo not shown) [Example 313, 5-{3-[1-(4-amino-3-methyl-1H-pyrazolo[3,4-d]pyrimidin-1-yl)ethyl]-5-chloro-6-cyano-2-methoxyphenyl}-N,N-dimethylpyridine-2-carboxamide], the IC50 in assay [1] (Homo sapiens, Pfeiffer) is below 10 nM.

With `CCOc1c(C(C)n2nc(C)c3c(N)ncnc32)cc(Cl)c(C#N)c1C1CN(C(=O)NC)C1` (single isomer, unassigned) [Example 257, 3-{3-[1-(4-Amino-3-methyl-1H-pyrazolo[3,4-d]pyrimidin-1-yl)ethyl]-5-chloro-6-cyano-2-ethoxyphenyl}-N-methylazetidine-1-carboxamide], in assay [1] (Homo sapiens, Pfeiffer), the IC50 is below 10 nM.

In assay [1] (Homo sapiens, Pfeiffer), `CCOc1c(C(C)n2nc(C)c3c(N)ncnc32)cc(Cl)c(F)c1C1CN(CCO)C1` (racemic) [Example 144, 2-(3-{3-[1-(4-Amino-3-methyl-1H-pyrazolo[3,4-d]pyrimidin-1-yl)ethyl]-5-chloro-2-ethoxy-6-fluorophenyl}azetidin-1-yl)ethanol] yielded an IC50 below 10 nM.
